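Test compounds were applied to cells in 96-well plates for 48 hours at 5 doses. GI50 is the concentration that inhibits growth by half. TGI denotes the concentration required for complete inhibition of growth.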
Tests used:
Experiment in all cases: inhibition of tumour cell growth, NCI panel, 48 h
[1] = system: 786-0 renal
[2] = system: DU-145 prostate
[3] = system: CAKI-1 renal
[4] = system: OVCAR-3 ovarian
[5] = system: SF-295 CNS
[6] = system: NCI-H522 lung
[7] = system: SNB-19 CNS
[8] = system: NCI-H460 lung
[9] = system: TK-10 renal
[10] = system: PC-3 prostate
[11] = system: SN12C renal
[12] = system: ACHN renal
[13] = system: K-562 leukemia
[14] = system: MDA-MB-231 breast
[15] = system: EKVX NSCLC
[16] = system: M14 melanoma
[17] = system: SK-MEL-5 melanoma
[18] = system: SK-MEL-28 melanoma
[19] = system: SK-MEL-2 melanoma
[20] = system: UACC-62 melanoma
[21] = system: RXF 393 renal
[22] = system: KM12 colon
[23] = system: SW-620 colon
[24] = system: MCF7 breast
[25] = system: IGROV1 ovarian
[26] = system: OVCAR-5 ovarian
[27] = system: UO-31 renal
[28] = system: CCRF-CEM leukemia
[29] = system: HOP-62 NSCLC
[30] = system: HS 578T breast
[31] = system: MOLT-4 leukemia
[32] = system: HCT-116 colon
[33] = system: SF-539 CNS
[34] = system: OVCAR-8 ovarian
[35] = system: HCT-15 colon
[36] = system: U251 CNS
[37] = system: HOP-92 NSCLC
[38] = system: T-47D breast
[39] = system: NCI/ADR-RES ovarian
[40] = system: BT-549 breast
[41] = system: RPMI-8226 leukemia
[42] = system: A549 NSCLC
[43] = system: MDA-MB-435
[44] = system: SF-268 CNS
[45] = system: HL-60(TB) leukemia
[46] = system: SK-OV-3 ovarian
[47] = system: HCC-2998 colon
[48] = system: COLO 205 colon
[49] = system: LOX IMVI melanoma
[50] = system: NCI-H23 lung
[51] = system: UACC-257 melanoma
[52] = system: A498 renal
[53] = system: SR leukemia

Compound: CC(=O)Nc1ccc(-c2csc(Nc3cccc(-c4csc(-c5ccccc5)n4)c3)n2)cc1
- GI50 [1]: 21 µM
- TGI [1]: > 50 µM
- GI50 [2]: 22.2 µM
- TGI [2]: > 50 µM
- GI50 [3]: 17.5 µM
- TGI [3]: > 50 µM
- GI50 [4]: 20.4 µM
- TGI [4]: > 50 µM
- GI50 [5]: 14.7 µM
- TGI [5]: > 50 µM
- GI50 [6]: 24.2 µM
- TGI [6]: > 50 µM
- GI50 [7]: 49.7 µM
- TGI [7]: > 50 µM
- GI50 [8]: 18.8 µM
- TGI [8]: > 50 µM
- GI50 [9]: 19.7 µM
- TGI [9]: > 50 µM
- GI50 [10]: 14.7 µM
- TGI [10]: > 50 µM
- GI50 [11]: 8.2 µM
- TGI [11]: 27.6 µM
- GI50 [12]: 8.3 µM
- TGI [12]: 27.5 µM
- GI50 [13]: 12.6 µM
- TGI [13]: 48.5 µM
- GI50 [14]: 13.5 µM
- TGI [14]: 37.9 µM
- GI50 [15]: 20.2 µM
- TGI [15]: > 50 µM
- GI50 [16]: 20.5 µM
- TGI [16]: > 50 µM
- GI50 [17]: 18.7 µM
- TGI [17]: > 50 µM
- GI50 [18]: 6.75 µM
- TGI [18]: 36.4 µM
- GI50 [19]: 16.4 µM
- TGI [19]: > 50 µM
- GI50 [20]: 4.7 µM
- TGI [20]: 14.9 µM
- GI50 [21]: 13.7 µM
- TGI [21]: 39.6 µM
- GI50 [22]: 24 µM
- TGI [22]: > 50 µM
- GI50 [23]: > 50 µM
- TGI [23]: > 50 µM
- GI50 [24]: 20 µM
- TGI [24]: > 50 µM
- GI50 [25]: 21.5 µM
- TGI [25]: > 50 µM
- GI50 [26]: > 50 µM
- TGI [26]: > 50 µM
- GI50 [27]: 16.7 µM
- TGI [27]: > 50 µM
- GI50 [28]: > 50 µM
- TGI [28]: > 50 µM
- GI50 [29]: > 50 µM
- TGI [29]: > 50 µM
- GI50 [30]: 37.2 µM
- TGI [30]: > 50 µM
- GI50 [31]: > 50 µM
- TGI [31]: > 50 µM
- GI50 [32]: 18.4 µM
- TGI [32]: > 50 µM
- GI50 [33]: 23.3 µM
- TGI [33]: > 50 µM
- GI50 [34]: 15.6 µM
- TGI [34]: > 50 µM
- GI50 [35]: 10.3 µM
- TGI [35]: > 50 µM
- GI50 [36]: 10.4 µM
- TGI [36]: > 50 µM
- GI50 [37]: 42.9 µM
- TGI [37]: > 50 µM
- GI50 [38]: 43.4 µM
- TGI [38]: > 50 µM
- GI50 [39]: 17.5 µM
- TGI [39]: > 50 µM
- GI50 [40]: 22.5 µM
- TGI [40]: > 50 µM
- GI50 [41]: 19.4 µM
- TGI [41]: > 50 µM
- GI50 [42]: 15.3 µM
- TGI [42]: > 50 µM
- GI50 [43]: 15.2 µM
- TGI [43]: > 50 µM
- GI50 [44]: 20 µM
- TGI [44]: > 50 µM
- GI50 [45]: 29.7 µM
- TGI [45]: > 50 µM
- GI50 [46]: > 50 µM
- TGI [46]: > 50 µM
- GI50 [47]: 12.5 µM
- TGI [47]: > 50 µM
- GI50 [48]: 24.2 µM
- TGI [48]: > 50 µM
- GI50 [49]: 7.71 µM
- TGI [49]: 18.1 µM
- GI50 [50]: 16.5 µM
- TGI [50]: > 50 µM
- GI50 [51]: 19 µM
- TGI [51]: > 50 µM
- GI50 [52]: 46 µM
- TGI [52]: > 50 µM
- GI50 [53]: 27.3 µM
- TGI [53]: > 50 µM
